Here are results for 11 compounds from ChEMBL document CHEMBL5291721, “A preclinical secondary pharmacology resource illuminates target-adverse drug reaction associations of marketed drugs” (Nat Commun, 2023).

Usually AC50 stands for the midpoint of the concentration-response curve, whichever way the signal moves.

The target of assay [1] is T1, Alpha-2A adrenergic receptor (Homo sapiens, UniProt P08913).
T1 sequence (P08913 whole entry): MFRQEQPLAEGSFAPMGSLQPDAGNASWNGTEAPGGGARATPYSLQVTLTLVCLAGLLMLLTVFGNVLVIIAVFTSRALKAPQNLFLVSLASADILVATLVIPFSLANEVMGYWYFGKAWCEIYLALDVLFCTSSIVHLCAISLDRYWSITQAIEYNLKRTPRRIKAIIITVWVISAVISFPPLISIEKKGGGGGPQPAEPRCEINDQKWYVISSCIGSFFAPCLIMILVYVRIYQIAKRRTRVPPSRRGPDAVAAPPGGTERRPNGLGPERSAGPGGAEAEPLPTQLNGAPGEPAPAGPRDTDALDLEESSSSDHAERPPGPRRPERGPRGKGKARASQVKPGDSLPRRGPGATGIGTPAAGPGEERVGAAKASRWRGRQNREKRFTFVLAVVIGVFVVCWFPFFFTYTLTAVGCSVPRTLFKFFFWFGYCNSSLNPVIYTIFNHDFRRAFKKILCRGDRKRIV
Format: functional, cell-based.

Assay [2] concerns the target T2, Prostaglandin G/H synthase 1 (Rattus norvegicus, UniProt Q63921).
T2 sequence (Q63921 whole entry): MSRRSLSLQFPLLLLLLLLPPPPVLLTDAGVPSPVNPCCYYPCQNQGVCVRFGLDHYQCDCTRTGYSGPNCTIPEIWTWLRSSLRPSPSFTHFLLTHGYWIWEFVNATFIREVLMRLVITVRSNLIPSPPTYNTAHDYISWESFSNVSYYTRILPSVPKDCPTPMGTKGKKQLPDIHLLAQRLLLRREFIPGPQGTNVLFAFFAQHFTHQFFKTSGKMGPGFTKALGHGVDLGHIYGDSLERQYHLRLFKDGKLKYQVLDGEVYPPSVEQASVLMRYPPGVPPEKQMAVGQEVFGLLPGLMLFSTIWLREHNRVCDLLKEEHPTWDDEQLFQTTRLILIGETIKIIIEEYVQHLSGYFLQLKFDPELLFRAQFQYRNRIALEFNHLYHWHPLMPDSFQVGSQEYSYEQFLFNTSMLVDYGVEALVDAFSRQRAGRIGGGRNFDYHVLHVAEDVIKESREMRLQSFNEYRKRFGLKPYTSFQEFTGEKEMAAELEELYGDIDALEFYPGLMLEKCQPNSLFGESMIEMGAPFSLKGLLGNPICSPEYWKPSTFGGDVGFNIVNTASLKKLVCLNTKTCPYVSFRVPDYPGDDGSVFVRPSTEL
Format: functional.

For another assay, the target named is D(3) dopamine receptor (Homo sapiens, UniProt P35462).
The target of assay [3] is T3, 5-hydroxytryptamine receptor 3A (Homo sapiens, UniProt P46098).
T3 sequence (P46098 whole entry): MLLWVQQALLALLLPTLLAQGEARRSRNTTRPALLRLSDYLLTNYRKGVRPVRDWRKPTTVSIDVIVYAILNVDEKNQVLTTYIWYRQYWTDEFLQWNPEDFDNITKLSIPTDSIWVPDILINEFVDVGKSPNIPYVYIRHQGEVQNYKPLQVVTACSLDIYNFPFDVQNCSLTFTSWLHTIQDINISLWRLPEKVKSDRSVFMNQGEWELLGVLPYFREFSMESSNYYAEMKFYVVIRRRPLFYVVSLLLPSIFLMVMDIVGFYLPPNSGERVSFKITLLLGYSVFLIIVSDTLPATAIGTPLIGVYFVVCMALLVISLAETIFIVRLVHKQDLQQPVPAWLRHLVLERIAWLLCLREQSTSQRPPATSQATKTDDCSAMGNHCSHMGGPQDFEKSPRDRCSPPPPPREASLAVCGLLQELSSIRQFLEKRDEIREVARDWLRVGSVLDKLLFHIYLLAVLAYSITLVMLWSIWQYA
Format: functional.

Assay [4] concerns the target T4, Alpha-1A adrenergic receptor (Homo sapiens, UniProt P35348).
T4 sequence (P35348 whole entry): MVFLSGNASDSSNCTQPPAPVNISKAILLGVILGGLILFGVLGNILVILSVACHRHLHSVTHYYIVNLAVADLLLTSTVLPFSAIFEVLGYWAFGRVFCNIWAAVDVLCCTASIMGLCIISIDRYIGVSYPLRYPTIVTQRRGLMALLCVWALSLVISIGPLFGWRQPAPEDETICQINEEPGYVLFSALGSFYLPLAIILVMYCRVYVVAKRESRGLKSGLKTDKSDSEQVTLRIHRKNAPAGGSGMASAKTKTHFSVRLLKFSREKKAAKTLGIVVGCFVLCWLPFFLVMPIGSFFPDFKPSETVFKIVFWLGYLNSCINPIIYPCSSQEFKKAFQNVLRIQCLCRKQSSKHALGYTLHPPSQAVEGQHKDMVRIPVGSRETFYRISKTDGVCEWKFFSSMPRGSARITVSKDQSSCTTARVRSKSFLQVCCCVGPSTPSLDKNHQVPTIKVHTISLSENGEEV
In kind it is functional, cell-based.

In assay [5] the target is T5, Amine oxidase [flavin-containing] A (Homo sapiens, UniProt P21397).
T5 sequence (P21397 whole entry): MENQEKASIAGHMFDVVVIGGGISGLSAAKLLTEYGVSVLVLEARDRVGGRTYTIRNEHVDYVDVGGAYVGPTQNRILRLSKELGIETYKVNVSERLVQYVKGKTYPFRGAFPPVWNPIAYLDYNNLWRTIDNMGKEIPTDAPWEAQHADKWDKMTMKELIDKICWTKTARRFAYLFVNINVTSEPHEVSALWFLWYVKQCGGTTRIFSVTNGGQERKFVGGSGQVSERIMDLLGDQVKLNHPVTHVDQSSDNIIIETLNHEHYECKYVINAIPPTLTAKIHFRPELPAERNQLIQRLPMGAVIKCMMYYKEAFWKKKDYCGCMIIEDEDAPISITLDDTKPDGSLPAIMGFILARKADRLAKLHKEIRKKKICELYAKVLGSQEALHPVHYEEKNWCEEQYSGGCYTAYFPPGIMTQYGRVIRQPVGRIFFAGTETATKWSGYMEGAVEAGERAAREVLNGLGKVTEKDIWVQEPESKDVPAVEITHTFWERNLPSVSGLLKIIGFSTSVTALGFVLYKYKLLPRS
In kind it is functional.

The target in assay [6] is T4, Alpha-1A adrenergic receptor. Format: functional, cell-based. The source holds these as a separate data set.
Further: assay procedure not described here.

D(3) dopamine receptor, sequence (P35462 whole entry): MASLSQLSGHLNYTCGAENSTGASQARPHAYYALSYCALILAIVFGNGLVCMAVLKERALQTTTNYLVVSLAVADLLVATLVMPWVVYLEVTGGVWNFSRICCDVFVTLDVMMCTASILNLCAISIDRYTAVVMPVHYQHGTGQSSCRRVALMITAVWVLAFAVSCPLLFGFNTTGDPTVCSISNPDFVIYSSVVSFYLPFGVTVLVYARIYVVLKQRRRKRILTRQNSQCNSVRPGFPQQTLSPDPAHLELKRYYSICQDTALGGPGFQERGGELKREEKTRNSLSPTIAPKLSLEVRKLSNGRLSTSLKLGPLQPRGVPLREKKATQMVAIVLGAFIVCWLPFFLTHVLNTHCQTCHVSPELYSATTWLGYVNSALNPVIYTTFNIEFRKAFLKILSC

Take `C#Cc1cccc(Nc2ncnc3cc(OCCOC)c(OCCOC)cc23)c1` [ERLOTINIB]: the AC50 (in assay [1]; in assay [2]; at D(3) dopamine receptor; in assay [3]; in assay [4]; in assay [5]) was above 30 µM in each case. In assay [6], this compound yielded an AC50 above 30 µM.

As to `CC(=O)/N=c1/sc(S(N)(=O)=O)nn1C` [METHAZOLAMIDE], the AC50 is above 10 µM in assay [1]; above 10 µM in assay [2]; above 30 µM at D(3) dopamine receptor; above 30 µM in assay [3]; above 10 µM in assay [5]; above 30 µM in assay [6].

For the compound `CC(C)(C)C(=O)NCCCC(=O)O` [PIVAGABINE], the AC50 in assay [6] was above 30 µM.

For the compound `CC(C)[N+](C)(CCOC(=O)C1c2ccccc2Oc2ccccc21)C(C)C` [PROPANTHELINE], the AC50 in assay [6] was above 30 µM.

The compound `CN(C)C(=O)c1nc(CNC(=O)CN)n(-c2ccc(Cl)cc2C(=O)c2ccccc2Cl)n1` [RILMAZAFONE] gave an AC50 in assay [6] above 30 µM.

In assay [6], `NC(=O)NS(=O)(=O)c1ccc(N)cc1` [SULFACARBAMIDE] gave an AC50 above 30 µM.

With `CCCCNc1ccc(C(=O)OCCN(C)C)cc1` [TETRACAINE], the AC50 is above 10 µM in assay [1]; above 30 µM in assay [2]; 22 µM on D(3) dopamine receptor; above 10 µM in assay [3]; above 30 µM in assay [4]; 0.97 µM in assay [5]. Moreover, the AC50 in assay [6] is above 30 µM.

For `Cn1c(=O)c2[nH]cnc2n(C)c1=O` [THEOPHYLLINE], the AC50 was above 10 µM in assay [1]; above 30 µM in assay [2]; above 30 µM on D(3) dopamine receptor; above 30 µM in assay [3]; above 30 µM in assay [4]; above 10 µM in assay [5]. Also, in assay [6], the AC50 was above 10 µM.

Consider `CC1(C)O[C@@H]2[C@@H](CO[C@@]3(COS(N)(=O)=O)OC(C)(C)O[C@@H]23)O1` [TOPIRAMATE], for which the AC50 was above 10 µM in assay [1]; above 30 µM in assay [2]; above 10 µM on D(3) dopamine receptor; above 10 µM in assay [3]; above 10 µM in assay [5]; above 30 µM in assay [6].

For the compound `NCCc1ccc(O)cc1` [TYRAMINE], the AC50 in assay [6] was above 30 µM.

The compound `CCCCCCCCCCCCCCCC(=O)OC/C=C(C)/C=C/C=C(C)/C=C/C1=C(C)CCCC1(C)C` [VITAMIN A PALMITATE] had an AC50 in assay [6] above 30 µM.
